Reference: the NIST ThermoML archive (doi:10.1016/j.fluid.2006.05.029)
Numbers after ± are expanded uncertainties.

Assays:
[1] = 298.15 K, 101.33 kPa, Liquid
[2] = refractive index (Na D-line) (dimensionless); details: 298.15 K; 101.33 kPa; Liquid; Standard Abbe refractometry

| mass density [1] [kg/m3] | refractive index [2] | mass density ([1]; Pycnometric method) [kg/m3] | SMILES |
| --- | --- | --- | --- |
| 1063.33 ± 1.3 | 1.3672 ± 0.0008 |  | COC(=O)OC [dimethyl carbonate] |
|  | 1.3262 ± 0.0007 | 786.49 ± 0.71 | CO [methanol] |
